From US12577234B2, “Antagonists of the muscarinic acetylcholine receptor M4” (Vanderbilt University, priority 2017, dated 2026)

Biological target: T1, human mAChR M4 (Homo sapiens, UniProt P08173)
T1 construct: expressed in transfected cells; host or cells: CHO-K1 (ATCC), stably co-expressing chimeric G protein Gqi5
T1 sequence (P08173 1-479): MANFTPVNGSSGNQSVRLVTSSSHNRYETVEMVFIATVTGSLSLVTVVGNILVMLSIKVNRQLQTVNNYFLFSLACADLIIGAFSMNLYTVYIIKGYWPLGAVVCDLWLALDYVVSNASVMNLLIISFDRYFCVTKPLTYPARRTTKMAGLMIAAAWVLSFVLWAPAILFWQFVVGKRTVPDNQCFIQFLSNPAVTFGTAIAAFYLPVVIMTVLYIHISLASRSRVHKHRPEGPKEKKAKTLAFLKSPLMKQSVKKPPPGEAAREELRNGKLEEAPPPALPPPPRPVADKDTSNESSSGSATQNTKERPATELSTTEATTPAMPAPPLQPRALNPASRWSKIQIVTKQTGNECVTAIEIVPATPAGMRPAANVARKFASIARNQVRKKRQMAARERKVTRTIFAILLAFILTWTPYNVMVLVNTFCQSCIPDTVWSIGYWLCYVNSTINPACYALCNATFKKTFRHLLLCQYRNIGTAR
Test: mAChR M4 cell-based functional assay (calcium mobilization, EC80 acetylcholine), human M4
Conditions: for Emin: human M4, % ACh maximum at 30 μM
Method in brief: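 CHO-K1 cells stably expressing human M4 with chimeric Gqi5; intracellular calcium rise read on FDSS as fluorescence static ratio at 1 Hz. Compounds in 10-point 1:3 dilution series; IC50 taken as concentration-dependent decrease of the EC80 acetylcholine response, four-parameter logistic fit.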

[1] = Table 9, M4/Gqi5/CHO-K1 cells, decrease of EC80 acetylcholine response
[2] = Table 10, M4/Gqi5/CHO-K1 cells, decrease of EC80 acetylcholine response

Row | IC50 [1] | Emin (Table 9) | Human M4 Emin (Table 10) | IC50 [2] | IC50 (Table 9, μM) | Molecule
1 | 1.04 µM | 4.09% | – | – | – | Cc1cnn(C)c1-c1ccc(NC(=O)C2CC3CN(CC(C)C(C)(C)C)CC3C2)nn1 (stereo not shown) [Compound 76, N-[6-(2,4-dimethylpyrazol-3-yl)pyridazin-3-yl]-2-(2,3,3-trimethylbutyl)-3,3a,4,5,6,6a-hexahydro-1H-cyclopenta[c]pyrrole-5-carboxamide]
2 | 0.128 µM | 3.20% | – | – | – | Fc1ccc(Cl)c(-c2ccc(N[C@H]3C[C@@H]4CN(CC56CC7CC(CC(C7)C5)C6)C[C@@H]4C3)nn2)c1 [Compound 26, (3aR,5s,6aS)-2-(1-adamantylmethyl)-N-[6-(2-chloro-5-fluoro-phenyl)pyridazin-3-yl]-3,3a,4,5,6,6a-hexahydro-1H-cyclopenta[c]pyrrol-5-amine]
3 | – | – | 28% | 0.038 µM | – | CCn1ccc(-c2ccc(N[C@H]3C[C@@H]4CN(CC5CCOCC5)C[C@@H]4C3)nn2)n1 [Compound 228, (3aR,5s,6aS)-N-[6-(1-ethylpyrazol-3-yl)pyridazin-3-yl]-2-(tetrahydropyran-4-ylmethyl)-3,3a,4,5,6,6a-hexahydro-1H-cyclopenta[c]pyrrol-5-amine]
4 | – | – | 4% | 0.00209 µM | – | FC1(F)CCCN(c2ccc(N[C@H]3C[C@@H]4CN(CC5CCOCC5)C[C@@H]4C3)nn2)C1 [Compound 196, (3aR,5s,6aS)-N-[6-(3,3-difluoro-1-piperidyl)pyridazin-3-yl]-2-(tetrahydropyran-4-ylmethyl)-3,3a,4,5,6,6a-hexahydro-1H-cyclopenta[c]pyrrol-5-amine]
5 | 0.538 µM | 4.50% | – | – | – | CCCC(C)CN1C[C@H]2CC(COc3ccc(-c4c(C)cnn4C)nn3)C[C@H]2C1 (stereo partly drawn) [Compound 82, (3aR,6aS)-5-[[6-(2,4-dimethylpyrazol-3-yl)pyridazin-3-yl]oxymethyl]-2-(2-methylpentyl)-3,3a,4,5,6,6a-hexahydro-1H-cyclopenta[c]pyrrole]
6 | 1.53 µM | 6.78% | – | – | – | Cc1cccnc1CN1C[C@H]2CC(COc3ccc(-c4cn(C)nc4C)nn3)C[C@H]2C1 (stereo partly drawn) [Compound 104, (3aR,6aS)-5-[[6-(1,3-dimethylpyrazol-4-yl)pyridazin-3-yl]oxymethyl]-2-[(3-methyl-2-pyridyl)methyl]-3,3a,4,5,6,6a-hexahydro-1H-cyclopenta[c]pyrrole]
7 | – | – | 4% | 0.00187 µM | – | c1cc2c(cc1-c1ccc(N[C@H]3C[C@@H]4CN(CC5CCOCC5)C[C@@H]4C3)nn1)OCO2 [Compound 182, (3aR,5s,6aS)-N-[6-(1,3-benzodioxol-5-yl)pyridazin-3-yl]-2-(tetrahydropyran-4-ylmethyl)-3,3a,4,5,6,6a-hexahydro-1H-cyclopenta[c]pyrrol-5-amine]
8 | 0.263 µM | 3.37% | – | – | – | Cc1cnn(C)c1-c1ccc(NC(=O)C2C[C@@H]3CN(CCC(C)(C)C)C[C@@H]3C2)nn1 (stereo partly drawn) [Compound 74, (3aR,6aS)-2-(3,3-Dimethylbutyl)-N-[6-(2,4-dimethylpyrazol-3-yl)pyridazin-3-yl]-3,3a,4,5,6,6a-hexahydro-1H-cyclopenta[c]pyrrole-5-carboxamide]
9 | 0.01 µM | 2.88% | – | – | – | CCCC(C)CN1C[C@H]2C[C@H](Nc3ccc(-c4cc(F)ccc4Cl)nn3)C[C@H]2C1 (stereo partly drawn) [Compound 30, (3aR,5s,6aS)-N-[6-(2-chloro-5-fluoro-phenyl)pyridazin-3-yl]-2-(2-methylpentyl)-3,3a,4,5,6,6a-hexahydro-1H-cyclopenta[c]pyrrol-5-amine]
10 | 0.43 µM | 3.60% | – | – | – | CC(CN1C[C@H]2C[C@@H](Oc3ccc(-c4cc(F)ccc4Cl)nn3)C[C@H]2C1)C(C)(C)C (stereo partly drawn) [Compound 55, (3aR,5r,6aS)-5-[6-(2-chloro-5-fluoro-phenyl)pyridazin-3-yl]oxy-2-(2,3,3-trimethylbutyl)-3,3a,4,5,6,6a-hexahydro-1H-cyclopenta[c]pyrrole]
11 | – | – | 16% | 0.00738 µM | – | CS(=O)(=O)Nc1cccc(-c2ccc(N[C@H]3C[C@@H]4CN(CC5CCOCC5)C[C@@H]4C3)nn2)c1 [Compound 217, N-[3-[6-[[(3aR,5s,6aS)-2-(tetrahydropyran-4-ylmethyl)-3,3a,4,5,6,6a-hexahydro-1H-cyclopenta[c]pyrrol-5-yl]amino]pyridazin-3-yl]phenyl]methanesulfonamide]
12 | – | – | 5% | 0.000517 µM | – | Fc1cccc(-c2ccc(N[C@H]3C[C@@H]4CN(CC5CCOCC5)C[C@@H]4C3)nn2)c1Cl [Compound 202, (3aR,5s,6aS)-N-[6-(2-chloro-3-fluoro-phenyl)pyridazin-3-yl]-2-(tetrahydropyran-4-ylmethyl)-3,3a,4,5,6,6a-hexahydro-1H-cyclopenta[c]pyrrol-5-amine]
13 | 0.0114 µM | 3.33% | – | – | – | Cc1nn(C)cc1-c1ccc(N[C@H]2C[C@@H]3CN(CC4CCCOC4)C[C@@H]3C2)nn1 (stereo partly drawn) [Compound 6, (3aR,5s,6aS)-N-[6-(1,3-dimethylpyrazol-4-yl)pyridazin-3-yl]-2-(tetrahydropyran-3-ylmethyl)-3,3a,4,5,6,6a-hexahydro-1H-cyclopenta[c]pyrrol-5-amine]
14 | – | – | 3% | 0.161 µM | – | Cc1nn(C)cc1-c1ccc(N[C@H]2C[C@@H]3CN(CC45CC6CC(CC(C6)C4)C5)C[C@@H]3C2)nc1 [Compound 150, (3aR,5s,6aS)-2-(1-adamantylmethyl)-N-[5-(1,3-dimethylpyrazol-4-yl)-2-pyridyl]-3,3a,4,5,6,6a-hexahydro-1H-cyclopenta[c]pyrrol-5-amine]
15 | 0.118 µM | 3.85% | – | – | – | Cc1cnn(C)c1-c1ccc(N[C@H]2C[C@@H]3CN(Cc4ccccc4)C[C@@H]3C2)nn1 [Compound 23, (3aR,5s,6aS)-2-benzyl-N-[6-(2,4-dimethylpyrazol-3-yl)pyridazin-3-yl]-3,3a,4,5,6,6a-hexahydro-1H-cyclopenta[c]pyrrol-5-amine]
16 | 0.0356 µM | 3.12% | – | – | – | Cc1cnn(C)c1-c1ccc(NC[C@H]2C[C@@H]3CN(CCC(C)(C)C)C[C@@H]3C2)nn1 [Compound 61, N-[[(3aR,5s,6aS)-2-(3,3-Dimethylbutyl)-3,3a,4,5,6,6a-hexahydro-1H-cyclopenta[c]pyrrol-5-yl]methyl]-6-(2,4-dimethylpyrazol-3-yl)pyridazin-3-amine]
17 | – | – | 5% | 0.405 µM | – | Cc1cnn(C)c1-c1ccc(NC(=O)[C@@H]2C[C@@H]3CN(CCC(C)(C)C)C[C@@H]3C2)nn1 [Compound 144, (3aR,5r,6aS)-2-(3,3-dimethylbutyl)-N-[6-(2,4-dimethylpyrazol-3-yl)pyridazin-3-yl]-3,3a,4,5,6,6a-hexahydro-1H-cyclopenta[c]pyrrole-5-carboxamide]
18 | – | 58.2% | – | – | > 10 µM | [(3aR,5r,6aS)-5-[6-(1,3-dimethylpyrazol-4-yl)pyridazin-3-yl]oxy-3,3a,4,5,6,6a-hexahydro-1H-cyclopenta[c]pyrrol-2-yl]-(1-adamantyl)methanone [Compound 60]
19 | – | – | 3% | 0.0451 µM | – | Fc1ccc(Cl)c(-c2ccc(N[C@H]3C[C@@H]4CN(Cc5ccoc5)C[C@@H]4C3)nn2)c1 [Compound 178, (3aR,5s,6aS)-N-[6-(2-chloro-5-fluoro-phenyl)pyridazin-3-yl]-2-(3-furylmethyl)-3,3a,4,5,6,6a-hexahydro-1H-cyclopenta[c]pyrrol-5-amine]
20 | – | – | 8% | 0.00117 µM | – | CC(=O)Nc1ccc(-c2ccc(N[C@H]3C[C@@H]4CN(CC5CCOCC5)C[C@@H]4C3)nn2)cc1 [Compound 180, N-[4-[6-[[(3aR,5s,6aS)-2-(tetrahydropyran-4-ylmethyl)-3,3a,4,5,6,6a-hexahydro-1H-cyclopenta[c]pyrrol-5-yl]amino]pyridazin-3-yl]phenyl]acetamide]
21 | – | – | 2% | 0.0391 µM | – | Fc1ccc(Cl)c(-c2ccc(N[C@H]3C[C@@H]4CN(Cc5cccc6c5OCO6)C[C@@H]4C3)nn2)c1 [Compound 167, (3aR,5s,6aS)-2-(1,3-benzodioxol-4-ylmethyl)-N-[6-(2-chloro-5-fluoro-phenyl)pyridazin-3-yl]-3,3a,4,5,6,6a-hexahydro-1H-cyclopenta[c]pyrrol-5-amine]
22 | 0.008 µM | 13.1% | – | – | – | Cc1cnn(C)c1-c1ccc(N[C@H]2C[C@@H]3CN(CCC(C)(C)C)C[C@@H]3C2)nn1 [Compound 1, (3aR,5s,6aS)-2-(3,3-Dimethylbutyl)-N-[6-(2,4-dimethylpyrazol-3-yl)pyridazin-3-yl]-3,3a,4,5,6,6a-hexahydro-1H-cyclopenta[c]pyrrol-5-amine]
23 | 3.07 µM | 6.99% | – | – | – | Fc1ccc(Cl)c(-c2ccc(O[C@@H]3C[C@@H]4CN(CC5CCCOC5)C[C@@H]4C3)nn2)c1 (stereo partly drawn) [Compound 57, (3aR,5r,6aS)-5-[6-(2-chloro-5-fluoro-phenyl)pyridazin-3-yl]oxy-2-(tetrahydropyran-3-ylmethyl)-3,3a,4,5,6,6a-hexahydro-1H-cyclopenta[c]pyrrole]
